For 18 compounds, IC50 results are on record in patent US12371454B2, “Cyclic peptide compound having Kras inhibitory action” (priority 2019, dated 2025).

The target of this test is T1, Kras and SOS1 (biotin-tagged human Kras loaded with GDP, His-tagged human SOS1) (Homo sapiens, UniProt P01116, G12D).
T1 construct: made in house; host or cells: E. coli (stated for Kras only)
Briefly: Protein-protein interaction inhibition between Kras and SOS1 (KrasGl2D-SOS PPI) using AlphaScreen. The settings on record: AlphaScreen; biotin-tagged human Kras loaded with GDP, His-tagged human SOS1; read-out: KRAS G12D-SOS PPI IC50. The test is classed as binding. In a few lines:
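Energy transfer from nickel-chelate donor beads bound to His-SOS1 to streptavidin acceptor beads bound to biotin-Kras, expressed in E. coli and loaded with GDP after purification, was monitored. Donors were excited at 680 nm; singlet oxygen reaching acceptors gave emission read at 520-620 nm.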

Starred links: 1 amine or outer side, 2 acyl side, 3 side chain; linkers in the order of their positions; H or OH if unused. Positions of bridges follow the written chain, without caps; N, C: chain ends. Non-standard residues stand in square brackets, D forms with d. Residues, ends and D or L forms follow the SMILES beside them. *: point of attachment. NMePhe(4-CF3) = CN[C@@H](Cc1ccc(C(F)(F)F)cc1)C(=O)O; NMePhe(4-Cl) = CN[C@@H](Cc1ccc(Cl)cc1)C(=O)O; NMedβ3hAla = C[C@H](CC(=O)[*:2])N(C)[*:1]; Leu(4,5-dehydro) = C=C(C)C[C@H](N)C(=O)O; NMeAla(cPent) = CN[C@@H](CC1CCCC1)C(=O)O; Phe(3-Br) = N[C@@H](Cc1cccc(Br)c1)C(=O)O; Phe(3-OMe) = COc1cccc(C[C@H](N)C(=O)O)c1; Phe(3-I) = N[C@@H](Cc1cccc(I)c1)C(=O)O; X10 = CC(C)=CC[C@H](N[*:1])C(=O)[*:2]; NMeY = CN[C@@H](Cc1ccc(O)cc1)C(=O)O; NMeCha = CN[C@@H](CC1CCCCC1)C(=O)O; NMeAoc(2) = CCCCCC[C@H](NC)C(=O)O; NMeCba = CN[C@@H](CC1CCC1)C(=O)O; NMeD = CN[C@@H](CC(=O)O)C(=O)O; NMeL = CN[C@@H](CC(C)C)C(=O)O; Cba = N[C@@H](CC1CCC1)C(=O)O; NMeA = CN[C@@H](C)C(=O)O; NMeAib = CNC(C)(C)C(=O)O; Nle = CCCC[C@H](N)C(=O)O; Piperidide = C1CCN(*)CC1; Pra = C#CC[C@H](N)C(=O)O; Pyrrolidide = C1CCN(*)C1; Aze = O=C(O)[C@@H]1CCN1; Nva = CCC[C@H](N)C(=O)O; Sar = CNCC(=O)O

T1 sequence (P01116 1-188 isoform P01116-2 G12D): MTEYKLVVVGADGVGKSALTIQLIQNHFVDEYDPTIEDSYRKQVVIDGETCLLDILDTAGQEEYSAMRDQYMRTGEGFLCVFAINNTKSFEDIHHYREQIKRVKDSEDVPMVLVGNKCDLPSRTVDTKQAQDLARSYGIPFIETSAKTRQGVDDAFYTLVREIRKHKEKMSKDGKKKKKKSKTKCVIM

As usually defined, the IC50 is the concentration that inhibits the measured activity by half. In the case of `CCCC[C@@H]1NC(=O)[C@H](Cc2cccc(I)c2)NC(=O)CN(C)C(=O)[C@H](Cc2ccc(Cl)cc2)N(C)C(=O)CN(C)C(=O)CN(C)C(=O)[C@H]([C@@H](C)CC)NC(=O)[C@H](CC(C)C)N(C)C(=O)C[C@@H](C(=O)N2CCCC2)N(C)C(=O)[C@H](Cc2ccccc2)NC(=O)C(C)(C)N(C)C1=O` [Compound 1409] ([NMeL]I[Sar][Sar][NMePhe(4-Cl)][Sar][Phe(3-I)][Nle][NMeAib]F[NMeD]-Pyrrolidide; lactam N-11), the IC50 amounted to 170 nM. As for `CCCC[C@@H]1NC(=O)[C@H](Cc2cccc(I)c2)NC(=O)CN(C)C(=O)[C@H](Cc2ccc(Cl)cc2)N(C)C(=O)CN(C)C(=O)CN(C)C(=O)[C@H]([C@@H](C)CC)NC(=O)[C@H](CC(C)C)N(C)C(=O)C[C@@H](C(=O)N2CCCC2)N(C)C(=O)[C@H](CCC)NC(=O)C(C)(C)N(C)C1=O` [Compound 1410] ([NMeL]I[Sar][Sar][NMePhe(4-Cl)][Sar][Phe(3-I)][Nle][NMeAib][Nva][NMeD]-Pyrrolidide; lactam N-11), the figure is 270 nM; as for `CCCC[C@@H]1NC(=O)[C@H](Cc2cccc(OC)c2)NC(=O)CN(C)C(=O)[C@H](Cc2ccc(Cl)cc2)N(C)C(=O)CN(C)C(=O)CN(C)C(=O)[C@H]([C@@H](C)CC)NC(=O)[C@H](CC(C)C)N(C)C(=O)C[C@@H](C(=O)N2CCCC2)N(C)C(=O)[C@H](CC(C)C)NC(=O)C(C)(C)N(C)C1=O` [Compound 1412] ([NMeL]I[Sar][Sar][NMePhe(4-Cl)][Sar][Phe(3-OMe)][Nle][NMeAib]L[NMeD]-Pyrrolidide; lactam N-11), 310 nM; as for `CCCC[C@@H]1NC(=O)[C@H](Cc2cccc(I)c2)NC(=O)CN(C)C(=O)[C@H](CC2CCC2)N(C)C(=O)[C@@H]2CCN2C(=O)[C@H](C)N(C)C(=O)[C@H]([C@@H](C)CC)NC(=O)[C@H](CC(C)C)N(C)C(=O)C[C@@H](C(=O)N2CCCCC2)N(C)C(=O)[C@H](CC(C)C)NC(=O)C(C)(C)N(C)C1=O` [Compound 1413] ([NMeL]I[NMeA][Aze][NMeCba][Sar][Phe(3-I)][Nle][NMeAib]L[NMeD]-Piperidide; lactam N-11), 190 nM. As for `C=C(C)C[C@@H]1NC(=O)[C@H](Cc2cccc(I)c2)NC(=O)CN(C)C(=O)[C@H](Cc2ccc(Cl)cc2)N(C)C(=O)[C@@H]2CCN2C(=O)CN(C)C(=O)[C@H]([C@@H](C)CC)NC(=O)[C@H](CC(C)C)N(C)C(=O)C[C@@H](C(=O)N2CCCCC2)N(C)C(=O)[C@H](CC(C)C)NC(=O)C(C)(C)N(C)C1=O` [Compound 1414] ([NMeL]I[Sar][Aze][NMePhe(4-Cl)][Sar][Phe(3-I)][Leu(4,5-dehydro)][NMeAib]L[NMeD]-Piperidide; lactam N-11), the figure is 38 nM; as for `CCCC[C@@H]1NC(=O)[C@H](Cc2cccc(Br)c2)NC(=O)CN(C)C(=O)[C@H](Cc2ccc(Cl)cc2)N(C)C(=O)[C@@H]2CCN2C(=O)[C@H](C)N(C)C(=O)[C@H]([C@@H](C)CC)NC(=O)[C@H](CC(C)C)N(C)C(=O)C[C@@H](C(=O)N2CCCCC2)N(C)C(=O)[C@H](CC(C)C)NC(=O)C(C)(C)N(C)C1=O` [Compound 1415] ([NMeL]I[NMeA][Aze][NMePhe(4-Cl)][Sar][Phe(3-Br)][Nle][NMeAib]L[NMeD]-Piperidide; lactam N-11), 34 nM; as for `CCCC[C@@H]1NC(=O)[C@H](Cc2cccc(I)c2)NC(=O)CN(C)C(=O)[C@H](CC2CCCCC2)N(C)C(=O)CN(C)C(=O)CN(C)C(=O)[C@H]([C@@H](C)CC)NC(=O)[C@H](CC(C)C)N(C)C(=O)C[C@@H](C(=O)N2CCCCC2)N(C)C(=O)[C@H](CC(C)C)NC(=O)C(C)(C)N(C)C1=O` [Compound 1416] ([NMeL]I[Sar][Sar][NMeCha][Sar][Phe(3-I)][Nle][NMeAib]L[NMeD]-Piperidide; lactam N-11), 97 nM.

In the case of `CCCCCC[C@H]1C(=O)N[C@@H]([C@@H](C)CC)C(=O)N(C)CC(=O)N2CC[C@H]2C(=O)N(C)[C@@H](Cc2ccc(OC)cc2)C(=O)N(C)CC(=O)N[C@@H](Cc2cccc(I)c2)C(=O)N[C@@H](CCCC)C(=O)N(C)C(C)(C)C(=O)N[C@@H](CC(C)C)C(=O)N(C)[C@H](C(=O)N2CCCCC2)CC(=O)N1C` [Compound 1417] ([NMeAoc(2)]I[Sar][Aze][NMeY](Me)[Sar][Phe(3-I)][Nle][NMeAib]L[NMeD]-Piperidide; lactam N-11), the IC50 was found to be 29 nM. In the case of `CC[C@H](C)[C@@H]1NC(=O)[C@H](CC(C)C)N(C)C(=O)C[C@@H](C(=O)N2CCCCC2)N(C)C(=O)[C@H](CC(C)C)NC(=O)C(C)(C)N(C)C(=O)[C@H](CC=C(C)C)NC(=O)[C@H](Cc2cccc(I)c2)NC(=O)CN(C)C(=O)[C@H](Cc2ccc(Cl)cc2)N(C)C(=O)[C@@H]2CCN2C(=O)[C@H](C)N(C)C1=O` [Compound 1419] ([NMeL]I[NMeA][Aze][NMePhe(4-Cl)][Sar][Phe(3-I)][X10][NMeAib]L[NMeD]-Piperidide; lactam N-11) it was 46 nM; in that of `CCCC[C@@H]1NC(=O)[C@H](Cc2cccc(I)c2)NC(=O)CN(C)C(=O)[C@H](CC2CCCCC2)N(C)C(=O)[C@@H]2CCN2C(=O)CN(C)C(=O)[C@H]([C@@H](C)CC)NC(=O)[C@H](CC(C)C)N(C)C(=O)C[C@@H](C(=O)N2CCCCC2)N(C)C(=O)[C@H](CC(C)C)NC(=O)C(C)(C)N(C)C1=O` [Compound 1420] ([NMeL]I[Sar][Aze][NMeCha][Sar][Phe(3-I)][Nle][NMeAib]L[NMeD]-Piperidide; lactam N-11), 89 nM; in that of `C=C(C)C[C@@H]1NC(=O)[C@H](Cc2cccc(I)c2)NC(=O)CN(C)C(=O)[C@H](Cc2ccc(Cl)cc2)N(C)C(=O)CN(C)C(=O)CN(C)C(=O)[C@H]([C@@H](C)CC)NC(=O)[C@H](CC(C)C)N(C)C(=O)C[C@@H](C(=O)N2CCCCC2)N(C)C(=O)[C@H](CC(C)C)NC(=O)C(C)(C)N(C)C1=O` [Compound 1421] ([NMeL]I[Sar][Sar][NMePhe(4-Cl)][Sar][Phe(3-I)][Leu(4,5-dehydro)][NMeAib]L[NMeD]-Piperidide; lactam N-11), 32 nM. In the case of `CCCC[C@@H]1NC(=O)[C@H](Cc2cccc(I)c2)NC(=O)CN(C)C(=O)[C@H](Cc2ccc(Cl)cc2)N(C)C(=O)CN(C)C(=O)CN(C)C(=O)[C@H]([C@@H](C)CC)NC(=O)[C@H](CC(C)C)N(C)C(=O)C[C@@H](C(=O)N2CCCCC2)N(C)C(=O)[C@H](CC2CCC2)NC(=O)C(C)(C)N(C)C1=O` [Compound 1422] ([NMeL]I[Sar][Sar][NMePhe(4-Cl)][Sar][Phe(3-I)][Nle][NMeAib][Cba][NMeD]-Piperidide; lactam N-11) it was 16 nM; in that of `CCCC[C@@H]1NC(=O)[C@H](Cc2cccc(I)c2)NC(=O)CN(C)C(=O)[C@H](CC2CCCC2)N(C)C(=O)CN(C)C(=O)CN(C)C(=O)[C@H]([C@@H](C)CC)NC(=O)[C@H](CC(C)C)N(C)C(=O)C[C@@H](C(=O)N2CCCCC2)N(C)C(=O)[C@H](CC(C)C)NC(=O)C(C)(C)N(C)C1=O` [Compound 1423] ([NMeL]I[Sar][Sar][NMeAla(cPent)][Sar][Phe(3-I)][Nle][NMeAib]L[NMeD]-Piperidide; lactam N-11), 190 nM.

Consider `C#CC[C@@H]1NC(=O)[C@H](Cc2cccc(I)c2)NC(=O)CN(C)C(=O)[C@H](Cc2ccc(C(F)(F)F)cc2)N(C)C(=O)[C@@H]2CCN2C(=O)CN(C)C(=O)[C@H]([C@@H](C)CC)NC(=O)[C@H](CC(C)C)N(C)C(=O)C[C@@H](C(=O)N2CCCCC2)N(C)C(=O)[C@H](CC(C)C)NC(=O)C(C)(C)N(C)C1=O` [Compound 1425] ([NMeL]I[Sar][Aze][NMePhe(4-CF3)][Sar][Phe(3-I)][Pra][NMeAib]L[NMeD]-Piperidide; lactam N-11), for which the IC50 was determined as 19 nM.

For the compound `C#CC[C@@H]1NC(=O)[C@H](Cc2cccc(I)c2)NC(=O)CN(C)C(=O)[C@H](Cc2ccc(Cl)cc2)N(C)C(=O)CN(C)C(=O)CN(C)C(=O)[C@H]([C@@H](C)CC)NC(=O)[C@H](CC(C)C)N(C)C(=O)C[C@@H](C(=O)N2CCCCC2)N(C)C(=O)[C@H](CC(C)C)NC(=O)C(C)(C)N(C)C1=O` [Compound 1426] ([NMeL]I[Sar][Sar][NMePhe(4-Cl)][Sar][Phe(3-I)][Pra][NMeAib]L[NMeD]-Piperidide; lactam N-11), the IC50 was determined as 48 nM. In the case of `C#CC[C@@H]1NC(=O)[C@H](Cc2cccc(I)c2)NC(=O)CN(C)C(=O)[C@H](Cc2ccc(C(F)(F)F)cc2)N(C)C(=O)[C@@H]2CCN2C(=O)CN(C)C(=O)[C@H]([C@@H](C)CC)NC(=O)[C@H](CC(C)C)N(C)C(=O)C[C@@H](C)N(C)C(=O)[C@H](CC(C)C)NC(=O)C(C)(C)N(C)C1=O` [Compound 1427] (cyclo([Aze][NMePhe(4-CF3)][Sar][Phe(3-I)][Pra][NMeAib]L[NMedβ3hAla][NMeL]I[Sar])) it was 250 nM; in that of `C#CC[C@@H]1NC(=O)[C@H](Cc2cccc(I)c2)NC(=O)CN(C)C(=O)[C@H](Cc2ccc(Cl)cc2)N(C)C(=O)[C@@H]2CCN2C(=O)[C@H](C)N(C)C(=O)[C@H]([C@@H](C)CC)NC(=O)[C@H](CC(C)C)N(C)C(=O)C[C@@H](C(=O)N2CCCCC2)N(C)C(=O)[C@H](CC(C)C)NC(=O)C(C)(C)N(C)C1=O` [Compound 1428] ([NMeL]I[NMeA][Aze][NMePhe(4-Cl)][Sar][Phe(3-I)][Pra][NMeAib]L[NMeD]-Piperidide; lactam N-11), 42 nM. On to `C=C(C)C[C@@H]1NC(=O)[C@H](Cc2cccc(I)c2)NC(=O)CN(C)C(=O)[C@H](Cc2ccc(Cl)cc2)N(C)C(=O)[C@@H]2CCN2C(=O)[C@H](C)N(C)C(=O)[C@H]([C@@H](C)CC)NC(=O)[C@H](CC(C)C)N(C)C(=O)C[C@@H](C(=O)N2CCCCC2)N(C)C(=O)[C@H](CC(C)C)NC(=O)C(C)(C)N(C)C1=O` [Compound 1429] ([NMeL]I[NMeA][Aze][NMePhe(4-Cl)][Sar][Phe(3-I)][Leu(4,5-dehydro)][NMeAib]L[NMeD]-Piperidide; lactam N-11), for which the IC50 came out at 44 nM.
